Like-named read-outs stand apart in the source and are kept apart here.

Data set [1] deals with Atlantic cod Ahr1a (Gadus morhua, UniProt A0A6H1Z2L5). Description: cell-based. Conditions: for Ahr1a REP25: EC25 of TCDD divided by concentration of PAC giving 25% of TCDD response; for Efficacy compared to TCDD with Ahr1a: Welch's t-test, Supporting Table S6.
For data set [2], the target named is T1, Atlantic cod Ahr2a (Gadus morhua, UniProt A0A6H1Z3G8).
T1 sequence (A0A6H1Z3G8 1-1127): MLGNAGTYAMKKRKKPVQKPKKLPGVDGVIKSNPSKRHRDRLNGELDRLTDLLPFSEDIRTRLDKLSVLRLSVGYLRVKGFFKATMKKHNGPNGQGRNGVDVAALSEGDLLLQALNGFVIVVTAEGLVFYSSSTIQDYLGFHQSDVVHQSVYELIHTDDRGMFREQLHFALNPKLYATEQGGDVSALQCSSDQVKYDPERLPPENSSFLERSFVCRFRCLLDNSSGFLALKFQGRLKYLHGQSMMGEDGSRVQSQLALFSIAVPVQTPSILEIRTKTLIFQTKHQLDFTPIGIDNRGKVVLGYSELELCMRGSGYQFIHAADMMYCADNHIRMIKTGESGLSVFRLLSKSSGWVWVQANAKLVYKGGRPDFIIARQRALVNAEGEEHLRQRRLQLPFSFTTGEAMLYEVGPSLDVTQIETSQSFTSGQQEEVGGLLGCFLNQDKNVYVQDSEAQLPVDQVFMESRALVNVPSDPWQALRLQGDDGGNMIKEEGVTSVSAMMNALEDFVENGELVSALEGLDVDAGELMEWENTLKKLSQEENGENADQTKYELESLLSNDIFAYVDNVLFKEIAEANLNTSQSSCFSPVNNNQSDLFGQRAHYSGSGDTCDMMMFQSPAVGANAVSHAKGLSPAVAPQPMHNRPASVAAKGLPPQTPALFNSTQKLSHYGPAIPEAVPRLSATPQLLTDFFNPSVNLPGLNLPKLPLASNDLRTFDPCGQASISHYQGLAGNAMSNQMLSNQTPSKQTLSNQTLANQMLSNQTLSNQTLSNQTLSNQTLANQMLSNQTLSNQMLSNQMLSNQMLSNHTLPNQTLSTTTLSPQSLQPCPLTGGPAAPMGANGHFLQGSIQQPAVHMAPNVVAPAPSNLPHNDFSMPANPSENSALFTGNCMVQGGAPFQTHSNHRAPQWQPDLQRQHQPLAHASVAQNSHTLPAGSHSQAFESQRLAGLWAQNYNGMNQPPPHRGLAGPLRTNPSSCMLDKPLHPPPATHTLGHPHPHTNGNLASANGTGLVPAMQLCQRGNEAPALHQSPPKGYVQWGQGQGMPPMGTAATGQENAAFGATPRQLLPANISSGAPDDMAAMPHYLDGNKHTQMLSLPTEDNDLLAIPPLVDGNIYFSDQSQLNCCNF
Description: cell-based. The conditions noted are these: for Ahr2a REP25: EC25 of TCDD divided by concentration of PAC giving 25% of TCDD response; for Efficacy compared to TCDD via Ahr2a: Welch's t-test, Supporting Table S6.

In data set [3] the test system is COS-7 cells. Description: Resazurin reduction viability assay. The data set is classed as cell-based, simian. Conditions: highest concentrations used; relative to 0.5% DMSO solvent control. On the procedure: COS-7 simian kidney cells were seeded onto 96 well plates (10 000 cells/well) in Dulbecco’s modified Eagle’s medium (DMEM) with phenol red, supplemented with 10% fetal bovine serum (FBS), 4 mM L-glutamate, 1 mM sodium pyruvate, and 100 U/mL penicillin–streptomycin (Merck KGaA, Darmstadt, Germany), and cultivated at 37 °C with 5% CO2 for 24 h. Cells were transiently co-transfected with a eukaryotic expression plasmid (pcDNA3.1/Zeo(+), 31 ng/well), pcDNA3.1/Zeo(+)-based plasmids encoding gmAhr1a or gmAhr2a (3 ng/well), gmArnt1 (6 ng/well),[37] a luciferase reporter plasmid containing four DREs (pGudLuc6.1, 30 ng/well), and a β-galactosidase normalization plasmid (pCMV-βGAL, 30 ng/well),[45],[46] using a Mirus TransIT LT-1 transfection reagent according to the recommendations of the supplier. COS-7 cells were seeded and cultivated in DMEM (4500 mg/L glucose), supplemented with 10% FBS, 1 mM sodium pyruvate, and 4 mM L-glutamine. In the exposure medium, FBS was substituted with 10% charcoal-stripped FBS (VWR International, Radnor). To create the exposure media with the highest test concentration, compounds solved in dimethyl sulfoxide (DMSO) were diluted 1:200 in exposure medium, resulting in exposure media with 1× test compound and 0.5% DMSO. The highest concentration exposure media were serially diluted five times (1:2 for the first dilution, then 1:5) in exposure medium supplemented with 0.5% DMSO. Following transfection, cells were incubated in exposure media containing PACs or solvent control (0.5% DMSO) for 24 h. Reporter gene assays were repeated at least three times and with three technical replicates per exposure. TCDD (30 pM to 100 nM) was used as a known agonist in each experiment. Absorbance and luminescence measurements were performed on an EnSpire Multimode plate reader (PerkinElmer, Waltham, MA). While no wavelength filtering was used to measure firefly luciferase activity by luminescence, absorbance measurements to quantify β-galactosidase activity were performed at 420 nm wavelength. The viability of exposed cells was evaluated using the resazurin reduction assay as previously described.[47],[48]
Recorded luminescence was normalized for variation in transfection efficiencies using β-galactosidase enzyme activity. The difference in normalized light units measured in lysates from exposed cells to solvent-exposed cells was calculated and expressed relative to the maximum response in TCDD-exposed cells. Response curves were prepared by nonlinear regression analyses in Prism v7 and used for the determination of half-maximal effective concentration values (EC50) and maximum efficacies (Emax). EC50 values were only determined for compounds that produced a sigmoidal concentration–response curve. Relative effect potencies 25 (REP25) were determined by dividing the EC25 of TCDD by the concentration of PAC necessary to produce a response equal to 25% of the response of TCDD with gmAhrs, essentially as described by Villeneuve et al. and Lam et al.[49],[50] The D’Agostino–Pearson (Ahr activation data) or Kolmogorov–Smirnov (viability data) normality tests were used to confirm the normal distribution of the data. One-way analysis of variance (ANOVA) and Dunnett′s test were used to compare responses at different concentrations of compounds and solvent control mediated via the same Ahr, in addition to comparing metabolic activity in PAC-exposed cells and cells exposed to solvent control in the resazurin reduction assay. Welch′s t-test was used to compare the maximum Ahr-mediated response and potency (Emax and EC50) between Ahr1a or Ahr2a produced by the same test compound (Prism v7).
(In general: The colour change of resazurin is a common sign of viable cells or microbes.)

Details of data set [4]: method as in PMID 29505926. Conditions: cited from earlier work.
The test system of data set [5] is rat AHR. Details: method as in PMID 17941736, PMID 25108069. The conditions noted are these: H4IIE-luc reporter assay; cited from earlier work.
The mark [6] stands for this setting: COS-7 cells, 24 h exposure, read-out: Ahr1a EC50.
The mark [7] stands for this setting: percent of maximum efficacy determined for TCDD, COS-7 cells, 24 h exposure, None = no agonistic response significantly different from solvent, read-out: Ahr1a Relative Emax (%).
[8] abbreviates: COS-7 cells, 24 h exposure, read-out: Ahr2a EC50.
The mark [9] stands for this setting: Supplementary Table S5, read-out: Potency (EC50, nM) Ahr2a.
[10] abbreviates: percent of maximum efficacy determined for TCDD, COS-7 cells, 24 h exposure, None = no agonistic response significantly different from solvent, read-out: Ahr2a Relative Emax (%).

Atlantic cod Ahr1a, sequence (A0A6H1Z2L5 1-957): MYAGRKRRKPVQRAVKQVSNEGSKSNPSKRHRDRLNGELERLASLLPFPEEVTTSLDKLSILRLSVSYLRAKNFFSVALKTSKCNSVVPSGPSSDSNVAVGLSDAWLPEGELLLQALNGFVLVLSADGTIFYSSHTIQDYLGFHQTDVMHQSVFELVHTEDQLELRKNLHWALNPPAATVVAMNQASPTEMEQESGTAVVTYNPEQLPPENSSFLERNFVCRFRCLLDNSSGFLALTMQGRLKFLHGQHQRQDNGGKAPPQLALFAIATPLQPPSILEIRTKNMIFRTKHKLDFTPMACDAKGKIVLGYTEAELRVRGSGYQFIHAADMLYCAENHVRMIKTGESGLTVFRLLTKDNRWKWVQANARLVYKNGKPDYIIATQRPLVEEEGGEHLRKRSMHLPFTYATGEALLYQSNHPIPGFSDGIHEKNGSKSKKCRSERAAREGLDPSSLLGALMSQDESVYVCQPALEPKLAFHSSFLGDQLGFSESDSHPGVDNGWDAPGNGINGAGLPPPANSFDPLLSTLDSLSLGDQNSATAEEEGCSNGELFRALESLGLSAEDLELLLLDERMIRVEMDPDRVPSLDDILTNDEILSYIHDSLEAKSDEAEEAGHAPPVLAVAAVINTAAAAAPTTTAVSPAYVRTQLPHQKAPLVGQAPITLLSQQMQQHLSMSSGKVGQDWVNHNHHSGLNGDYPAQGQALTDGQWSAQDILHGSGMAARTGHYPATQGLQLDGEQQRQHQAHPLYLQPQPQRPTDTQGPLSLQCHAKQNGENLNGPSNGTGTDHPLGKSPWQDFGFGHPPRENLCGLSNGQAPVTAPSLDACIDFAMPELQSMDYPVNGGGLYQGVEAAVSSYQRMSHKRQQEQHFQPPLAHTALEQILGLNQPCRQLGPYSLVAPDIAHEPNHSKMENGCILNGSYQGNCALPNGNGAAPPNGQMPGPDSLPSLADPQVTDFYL
Atlantic cod Ahr1a, sequence (A0A8C5CZZ9 1-645 partner): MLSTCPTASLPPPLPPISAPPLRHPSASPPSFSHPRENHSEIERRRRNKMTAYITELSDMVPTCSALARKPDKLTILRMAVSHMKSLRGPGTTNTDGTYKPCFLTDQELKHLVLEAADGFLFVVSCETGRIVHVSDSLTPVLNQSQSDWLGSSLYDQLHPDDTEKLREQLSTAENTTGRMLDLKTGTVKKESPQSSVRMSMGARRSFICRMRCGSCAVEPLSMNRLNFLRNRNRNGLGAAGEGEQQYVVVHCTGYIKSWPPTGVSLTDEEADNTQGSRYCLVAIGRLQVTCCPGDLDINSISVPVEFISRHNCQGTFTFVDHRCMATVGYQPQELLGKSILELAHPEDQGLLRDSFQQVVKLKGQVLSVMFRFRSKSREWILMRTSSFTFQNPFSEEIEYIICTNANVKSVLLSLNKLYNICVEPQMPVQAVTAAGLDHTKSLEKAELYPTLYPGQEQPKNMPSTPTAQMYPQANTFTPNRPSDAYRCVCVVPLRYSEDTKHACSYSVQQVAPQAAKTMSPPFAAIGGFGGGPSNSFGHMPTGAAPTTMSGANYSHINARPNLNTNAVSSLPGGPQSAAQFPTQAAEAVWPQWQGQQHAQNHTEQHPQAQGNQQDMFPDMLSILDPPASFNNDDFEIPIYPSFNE

By EC50 is commonly meant the midpoint of the concentration-response curve. The term Emax denotes the size of the effect at its maximum, as opposed to the concentration needed. In general, melting point refers to the temperature of the solid-liquid transition. As to `COc1cc2ccc3c4ccccc4ccc3c2cc1OC` [2,3-DMOC, 2,3-Dimethoxychrysene], the melting point fell in the range of 212 to 213.5 °C. In addition, the 50% effective concentration (EC50) in data set [1] (setting [6]) was 199 nM. In addition, in data set [1], the “Ahr1a REP25” value is 0.0083 and the “Efficacy compared to TCDD with Ahr1a” value is “lower efficacies than TCDD”. Also, in data set [1] (in vitro transactivation), the “Activation of Ahr1a (agonist or not)” value was “activated the two Ahrs”. In data set [1] (setting [7]), the maximal response (Emax) was determined as 77.5%. Moreover, the EC50 in data set [2] (setting [8]) amounted to 359 nM. In data set [2], the “Ahr2a REP25” value is recorded as 0.00911 and the “Efficacy compared to TCDD via Ahr2a” value is on record as “lower efficacies in comparison to TCDD”. In data set [2] (setting [9]), the EC50 is 359 nM. Moreover, the “Activation of Ahr2a (agonist or not)” value in data set [2] (in vitro transactivation) is “activated the two Ahrs”. Besides, the Emax in data set [2] (setting [10]) was determined as 55%.
As to `Cc1cc2ccccc2c2ccc3ccccc3c12` [5-MC, 5-Methylchrysene], the EC50 in data set [1] (setting [6]) turned out to be 596 nM; in data set [1] (Supplementary Table S5, read-out: Potency (EC50, nM) Ahr1a) it was 596 nM; in data set [2] (setting [8]), 193 nM; in data set [2] (setting [9]), 193 nM. In addition, the “Ahr1a REP25” value in data set [1] is listed as 0.00494. For the same compound, in data set [1], the “Efficacy compared to TCDD with Ahr1a” value is reported as “efficacies similar to that of TCDD”. The Emax in data set [1] (setting [7]) stood at 90.1%; in data set [2] (setting [10]) it was 68.4%. The “fold higher REP25 with Ahr2a compared to Ahr1a” value in data set [2] (Ahr2a versus Ahr1a) is on record as 5- to 10 fold. Besides, in data set [2], the “Ahr2a REP25” value turned out to be 0.0495. In data set [2], the “Efficacy compared to TCDD via Ahr2a” value was “lower efficacies in comparison to TCDD”. For the same compound, in data set [3], the “Metabolic activity (cell viability) of exposed COS-7 cells” value is reported as “slight reduction in metabolic activities”. Besides, in data set [4] (from TEF values), the “agonistic potential, times higher than CHR” value was 100 times. For the same compound, the “toxic equivalent factor (TEF)” value in data set [4] (toxic potential relative to the toxicity of BAP) is recorded as 1.0.
For the compound `Clc1cc2c(cc1Cl)Oc1cc(Cl)c(Cl)cc1O2` [TCDD, 2,3,7,8-Tetrachlorodibenzo-p-dioxin, reference compound], the half-maximal effective concentration (EC50) in data set [1] (Ahr1a EC50 (nM), COS-7 cells, 24 h exposure) was 1.7 nM; in data set [2] (Ahr2a EC50 (nM), COS-7 cells, 24 h exposure), 6.2 nM; in data set [5], 0.008 to 0.018 nM. The Emax in data set [1] (COS-7, read-out: Ahr1a Relative Emax (%)) is 99.7%; in data set [2] (COS-7, read-out: Ahr2a Relative Emax (%)), 99.4%.

These data come from PMC8600679, “Substituted Two- to Five-Ring Polycyclic Aromatic Compounds Are Potent Agonists of Atlantic Cod (Gadus morhua) Aryl Hydrocarbon Receptors Ahr1a and Ahr2a” (Environmental Science & Technology, 2021).
